Test results from patent US20250032590A1, “PARATHYROID HORMONE COMPOUNDS IN THE TREATMENT OF HYPOPARATHYROIDISM” (AMOLYT PHARMA, priority 2023, published 2025).
Read-outs that look alike come from different tables or passages of the source.

Tests used:
patients with HP [1] = details: cited from earlier work; for urinary calcium excretion: clinical studies; for control of calcium levels: patients with HP
[2] = test system: normal cynomolgus monkeys; test: Blood calcium after single injection in normal cynomolgus monkeys (Example 5); type: in vivo, cynomolgus monkey; details: single dose 10 nmole/kg (AZP-3601 42.7 μg/kg, PTH (1-84) 95 μg/kg, PTH (1-34) 42 μg/kg), AZP-3601 also 10.7 μg/kg (2.5 nmole/kg)
Method: To further examine how the potent and sustained biological activity induced by AZP-3601 could translate into potential clinical benefit for […] patients, its activity was examined in normal cynomolgus monkeys, a species much closer to humans and the most relevant for first in human dose-selection. Single injections of AZP-3601 were administered to normal cynomolgus monkeys. […] The dissociation between pharmacokinetic profile and pharmacodynamic effect is due to the short circulating half-life of AZP-3601 as opposed to the prolonged signaling caused by AZP-3601's potent interaction with the R^0 conformation of the PTH1 receptor.
In a second study as illustrated in panel B of FIG. 5, monkeys were injected with a single dose of either natural PTH (1-84) at 95 μg/kg, natural PTH (1-34) at 42 μg/kg or AZP-3601 at 42.7 μg/kg, which were equal doses of 10 nmole/kg, adjusted for the molecular weight of the individual compounds. In addition, a lower dose of 10.7 μg AZP-3601/kg (2.5 nmole/kg) was also tested.

hypoparathyroid mice = details: single sc, AZP-3601 10 to 20 nmol/kg, PTH(1-34) at a higher dose; cited from earlier work
TPTX rats [3] = test: Distal femur BMD by qCT in TPTX rats after 14-day treatment at doses that normalize serum calcium (Example 6); type: in vivo, rat
Method: To directly compare the effect of daily subcutaneous injection of AZP-3601 to daily subcutaneous injection and continuous infusion of PTH(1-34), dose levels for each regimen that normalized serum calcium levels in TPTX rats were utilized. These doses corresponded to 50 nmoles/kg/day (205 μg/kg/day) for PTH(1-34) injected daily, 3 nmoles/kg/day (12.3 μg/kg/day) for PTH(1-34) continuously infused, and 1 nmole/kg/day (4.2 μg/kg/day) for AZP-3601 injected daily. After 14 days of treatment, femurs were collected and examined for bone mineral density (BMD) by quantitative computed tomography.

PTX mice = test: Serum calcium after single dosing in HP PTX mouse model (Example 1); type: in vivo; details: PTX mice, single dosing; AZP-3601 20, 40 or 80 μg/kg; PTH (1-34) 200 μg/kg
Source text: In FIG. 1, the black line indicates the impact of PTX in mice, resulting in serum calcium levels well below normal levels.

patients with HP [4] = details: cited from earlier work
TPTX rats [5] = details: rat, in vivo; cited from earlier work
TPTX rats [6] = test: Serum calcium and phosphate, 28-day daily sc dosing in HP TPTX rat model (Example 2); type: in vivo; details: once daily sc for 28 days
Method: Thyroid-parathyroidectomized, or TPTX, rats were treated with daily subcutaneous injection of AZP-3601 at doses ranging from 3.8 μg/kg/day to 30.7 μg/kg/day. Treatment was continued for 28 days. […] The increase in calcium accumulated over time (over the first 15 to 21 days), but became more constant thereafter, indicating the development of a steady-state effect (FIG. 2). Due to the cumulative effect, lower doses of AZP-3601 were required to eventually increase blood calcium levels into the normal range as compared to the dose required with a single injection.

TPTX rats [7] = test: BMD (DXA) and bone structure (micro-CT) in TPTX rats after repeated daily dosing (Example 7); type: in vivo, rat; details: once daily sc, AZP-3601 3.8 to 30.7 μg/kg/day, versus vehicle
Method: To examine the effect of repeated dosing with AZP-3601, TPTX rats were treated with daily subcutaneous injections of either vehicle or AZP-3601 with doses ranging from 3.8 to 30.7 μg/kg/day (0.9-7.2 nmole/kg/day). As additional controls, a separate group of TPTX rats received daily injections of natural PTH (1-84), and a group of normal (with intact thyroid and parathyroid glands, or sham) rats were injected with vehicle. […] Both whole femurs and lumbar spine were analyzed using a technique called dual-energy x-ray absorptionametry, or DXA, which measures BMD.

Molecule: Natpara™: recombinant natural human PTH ((rh)PTH(1-84)), approved adjunct to calcium and vitamin D in HP
- urinary calcium excretion (patients with HP [1]): failed to demonstrate reduction of urinary calcium excretion
- urinary calcium excretion (patients with HP [1]; listed as (rh)PTH(1-84)): elevated urinary calcium excretion in many subjects
- adverse effects (patients with HP [1]; human, in vivo): adverse effects such as hyper/hypocalcemia and vasoactive events
- half-life (patients with HP [1]; human, in vivo): short half-life
- control of calcium levels (patients with HP [1]): does not control calcium levels for the entire day
- control of calcium levels (patients with HP [1]; listed as (rh)PTH(1-84)): lack of 24-hour control of serum calcium

Molecule: PTH(1-34) (SVSEIQLMHNLGKHLNSMERVEWLRKKLQDVHNF) [natural PTH (1-34)]
- effect on blood calcium, second study [2]: only modestly increased blood calcium
- duration of decreased serum inorganic phosphorus (hypoparathyroid mice): < 4 h
- duration of increased serum calcium (hypoparathyroid mice): < 8 h
- femur BMD by quantitative computed tomography, continuous infusion (TPTX rats [3]; 14 days, 3 nmoles/kg/day continuously infused): significant decrease in BMD
- femur BMD by quantitative computed tomography, daily injection (TPTX rats [3]; 14 days, PTH(1-34) 50 nmoles/kg/day, AZP-3601 1 nmole/kg/day): significant increase in BMD
- dose that normalized serum calcium levels, continuous infusion (TPTX rats [3]; continuously infused): 3 nmol/kg/day
- dose that normalized serum calcium levels, daily subcutaneous injection (TPTX rats [3]; injected daily): 50 nmol/kg/day
- effect on serum calcium (PTX mice): transient elevation in serum calcium

Molecule: TransCon™PTH: sustained-release, injectable prodrug formulation of native PTH (1-34), Ascendis Pharma A/S
- hypercalciuria after treatment (patients with HP [4]; Phase 3 trial, 6 months of treatment): a number of patients are still hypercalciuric
- mean T-scores (patients with HP [4]; human, in vivo): decrease in mean T-scores
- serum calcium levels (patients with HP [4]; human, in vivo): provides stable serum calcium levels
- mean 24-hour urine calcium levels (patients with HP [4]; patients with HP): decrease mean 24-hour urine calcium levels
- pharmacokinetic profile (TPTX rats [5]): continuous, non-pulsatile, infusion-like pharmacokinetic profile

B1: PTH (1-84) (protein, UniProt P01270 32-115, looked up)
Parathyroid hormone: SVSEIQLMHNLGKHLNSMERVEWLRKKLQDVHNFVALGAPLAPRDAGSQRPRKKEDNVLVESHEKSLGEADKADVNVLTKAKSQ
modifications: Parathyroid hormone
notes: natural PTH (1-84), comparator in rats and monkeys
- effect on blood calcium, second study [2]: only modestly increased blood calcium
- effect on blood phosphate levels (TPTX rats [6]): only marginal reductions in blood phosphate levels
- effect on serum/blood calcium levels (TPTX rats [6]; AZP-3601 3.8 to 30.7 μg/kg/day): no persistent increase in blood calcium levels
- BMD of whole femur and lumbar spine by DXA (TPTX rats [7]): statistically significant increase in BMD
